Measurements as given in patent US20130096156A1 (priority 2010, published 2013).
Where two headings read alike, the source gives them in different places.

Experiments:
[1] = test system: Phytophthora infestans; experiment: whole plant or invertebrate; type: in vivo; conditions: in Solanum lycopersicum, foliar, read-out: inhibit fungal infestation (percent disease control compared to untreated)
[2] = test system: Plasmopara viticola; experiment: Plasmopara viticola / grape / leaf disc preventative; type: in vivo; conditions: foliar, grape vine leaf disks, inoculated 1 day after application, assessed 6-8 days after application, read-out: inhibit fungal infestation (percent disease control compared to untreated)
Method: (§1) Leaf disks of various plant species (diameter 14 mm) are cut from plants grown in the greenhouse. The cut leaf disks are placed in multiwell plates (24-well format) onto water agar. Immediately after cutting the leaf disks are sprayed with a test solution.
(§2) Compounds to be tested are prepared as DMSO solutions (max. 10 mg/ml). Just before spraying the solutions are diluted to the appropriate concentrations with 0.025% Tween20. After drying, the leaf disks are inoculated with a spore suspension of the appropriate pathogenic fungus.
(§3) After an incubation time of 3-7 days after inoculation at defined conditions (temp, rH, light, etc.) according to the respective test system, the activity of the test compound is assessed as antifungal activity.
Grape vine leaf disks are placed on water agar in multiwell plates (24-well format) and sprayed with the formulated test compound diluted in water. The leaf disks are inoculated with a spore suspension of the fungus 1 day after application. The inoculated leaf disks are incubated at 19° C. and 80% rh under a light regime of 12 h light/12 h darkness in a climate cabinet and the activity of a compound is assessed as percent disease control compared to untreated when an appropriate level of disease damage appears in untreated check leaf disks (6-8 days after application).

[3] = test system: Phaeosphaeria nodorum (Septoria nodorum); experiment: Phaeosphaeria nodorum (Septoria nodorum) / wheat / leaf disc preventative (glume blotch); type: in vivo; conditions: Parastagonospora nodorum, foliar, wheat leaf segments cv. Kanzler, inoculated 2 days after application, assessed 5-7 days after application, read-out: inhibit fungal infestation (percent disease control compared to untreated)
Method: as §1, §2, §3
Wheat leaf segments cv. Kanzler are placed on agar in a multiwell plate (24-well format) and sprayed with the formulated test compound diluted in water. The leaf disks are inoculated with a spore suspension of the fungus 2 days after application. The inoculated test leaf disks are incubated at 20° C. and 75% rh under a light regime of 12 h light/12 h darkness in a climate cabinet and the activity of a compound is assessed as percent disease control compared to untreated when an appropriate level of disease damage appears in untreated check leaf disks (5-7 days after application).

[4] = test system: Pythium ultimum; experiment: Pythium ultimum / liquid culture (seedling damping off); type: cell-based; conditions: Globisporangium ultimum, liquid culture in PDB, 24° C., 2-3 days after application, read-out: inhibit fungal infestation (inhibition of growth determined photometrically)
Method: Mycelia fragments or conidia suspensions of a fungus, prepared either freshly from liquid cultures of the fungus or from cryogenic storage, are directly mixed into nutrient broth. DMSO solutions of the test compound (max. 10 mg/ml) is diluted with 0.025% Tween20 by factor 50 and 10 μl of this solution is pipetted into a microtiter plate (96-well format) and the nutrient broth containing the fungal spores/mycelia fragments is then added to give an end concentration of the tested compound. The test plates are incubated at 24° C. and 96% rH in the dark. The inhibition of fungal growth is determined photometrically after 2-6 days and antifungal activity is calculated.
Mycelia fragments and oospores of a newly grown liquid culture of the fungus are directly mixed into nutrient broth (PDB potato dextrose broth). After placing a (DMSO) solution of test compound into a microtiter plate (96-well format), the nutrient broth containing the fungal mycelia/spore mixture is added. The test plates are incubated at 24° C. and the inhibition of growth is determined photometrically 2-3 days after application.

[5] = test system: Blumeria graminis f. sp. tritici (Erysiphe graminis f. sp. tritici); experiment: Blumeria graminis f. sp. tritici / wheat / leaf disc preventative (powdery mildew on wheat); type: in vivo; conditions: foliar, wheat leaf segments cv. Kanzler, inoculated 1 day after application, assessed 6-8 days after application, read-out: inhibit fungal infestation (percent disease control compared to untreated)
Method: as §1, §2, §3
Wheat leaf segments cv. Kanzler are placed on agar in a multiwell plate (24-well format) and sprayed with the formulated test compound diluted in water. The leaf disks are inoculated by shaking powdery mildew infected plants above the test plates 1 day after application. The inoculated leaf disks are incubated at 20° C. and 60% rh under a light regime of 24 h darkness followed by 12 h light/12 h darkness in a climate chamber and the activity of a compound is assessed as percent disease control compared to untreated when an appropriate level of disease damage appears on untreated check leaf segments (6-8 days after application).

For `C#CC(C)(C)NC(=O)C(Oc1cc(Cl)c2ncc(CC)cc2c1)SC` (stereo not shown) [Compound 25, 2-(8-Chloro-3-ethyl-quinolin-6-yloxy)-N-(1,1-dimethyl-prop-2-ynyl)-2-methylsulfanyl-acetamide], the melting point was 149 to 151 °C, the inhibition at 200 ppm [1] was ≥ 80% and the inhibition at 200 ppm [2] was ≥ 80%. For the same compound, the inhibition at 200 ppm [3] was ≥ 80%.

In the case of `CCc1cnc2c(F)cc(OC(SC)C(=O)NC(C)(C)/C=N/OC)cc2c1` (stereo not shown) [Compound 14, 2-(3-Ethyl-8-fluoro-quinolin-6-yloxy)-N-(2-methoxyimino-1,1-dimethyl-ethyl)-2-methylsulfanyl-acetamide], the inhibition at 200 ppm [4] is reported as ≥ 80%, the melting point is reported as 101 to 103 °C and the inhibition at 200 ppm [5] is reported as ≥ 80%. For the same compound, the inhibition at 200 ppm [1] was ≥ 80%, the inhibition at 200 ppm [2] was ≥ 80% and the inhibition at 200 ppm [3] was ≥ 80%.

For `C#CC(C)(C)NC(=O)C(Oc1cc(C)c2ncc(C=C)cc2c1)SC` (stereo not shown) [Compound 36, N-(1,1-Dimethyl-prop-2-ynyl)-2-methylsulfanyl-2-(8-methyl-3-vinyl-quinolin-6-yloxy)-acetamide], the inhibition at 200 ppm [4] was ≥ 80%, the melting point was 115 to 117 °C and the inhibition at 200 ppm [5] was ≥ 80%. For the same compound, the inhibition at 200 ppm [1] was ≥ 80%, the inhibition at 200 ppm [2] was ≥ 80% and the inhibition at 200 ppm [3] was ≥ 80%.

For `C#CC(C)(C)NC(=O)C(Oc1cc(C)c2ncc(CC)cc2c1)SC` (stereo not shown) [Compound 18, N-(1,1-Dimethyl-prop-2-ynyl)-2-(3-ethyl-8-methyl-quinolin-6-yloxy)-2-methylsulfanyl-acetamide], the inhibition at 200 ppm [4] was ≥ 80%, the melting point was 92 to 93 °C and the inhibition at 200 ppm [5] was ≥ 80%. For the same compound, the inhibition at 200 ppm [1] was ≥ 80%, the inhibition at 200 ppm [2] was ≥ 80% and the inhibition at 200 ppm [3] was ≥ 80%.

With `C=Cc1cnc2c(C)cc(OC(SC)C(=O)NC(C)(C)/C=N/OC)cc2c1` (stereo not shown) [Compound 35, N-(2-Methoxyimino-1,1-dimethyl-ethyl)-2-methylsulfanyl-2-(8-methyl-3-vinyl-quinolin-6-yloxy)-acetamide] the inhibition at 200 ppm [4] was ≥ 80%, the melting point was 87 to 89 °C and the inhibition at 200 ppm [5] was ≥ 80%. For the same compound, the inhibition at 200 ppm [1] was ≥ 80%, the inhibition at 200 ppm [2] was ≥ 80% and the inhibition at 200 ppm [3] was ≥ 80%.

For `CC#CC(C)(C)NC(=O)C(Oc1ccc2ncc(CC)cc2c1)SC` (stereo not shown) [Compound 13, N-(1,1-Dimethyl-but-2-ynyl)-2-(3-ethyl-quinolin-6-yloxy)-2-methylsulfanyl-acetamide], the inhibition at 200 ppm [4] was ≥ 80%, the melting point was 133 to 134 °C and the inhibition at 200 ppm [5] was ≥ 80%. The inhibition at 200 ppm [1] was ≥ 80% and the inhibition at 200 ppm [2] was ≥ 80%.

In the case of `CO/N=C/C(C)(C)NC(=O)C(Oc1ccc2ncc(C)cc2c1)SC` (stereo not shown) [Compound 12, N-(2-Methoxyimino-1,1-dimethyl-ethyl)-2-(3-methyl-quinolin-6-yloxy)-2-methylsulfanyl-acetamide], the inhibition at 200 ppm [4] is reported as ≥ 80%, the melting point is reported as 130 to 132 °C and the inhibition at 200 ppm [5] is reported as ≥ 80%. For the same compound, the inhibition at 200 ppm [1] was ≥ 80% and the inhibition at 200 ppm [2] was ≥ 80%.

In the case of `CC#CC(C)(C)NC(=O)C(Oc1ccc2ncc(C)cc2c1)SC` (stereo not shown) [Compound 3, N-(1,1-Dimethyl-but-2-ynyl)-2-(3-methyl-quinolin-6-yloxy)-2-methylsulfanyl-acetamide], the inhibition at 200 ppm [4] is reported as ≥ 80%, the melting point is reported as 128 to 129 °C and the inhibition at 200 ppm [5] is reported as ≥ 80%. For the same compound, the inhibition at 200 ppm [1] was ≥ 80% and the inhibition at 200 ppm [2] was ≥ 80%.

In the case of `C#CC(C)(COC)NC(=O)C(Oc1cc(C)c2ncc(C)cc2c1)SC` (stereo not shown) [Compound 10, 2-(3,8-Dimethyl-quinolin-6-yloxy)-N-(1-methoxymethyl-1-methyl-prop-2-ynyl)-2-methylsulfanyl-acetamide], the inhibition at 200 ppm [4] is reported as ≥ 80%, the melting point is reported as 119 to 120 °C and the inhibition at 200 ppm [5] is reported as ≥ 80%. The inhibition at 200 ppm [1] was ≥ 80% and the inhibition at 200 ppm [3] was ≥ 80%.

In the case of `C=Cc1cnc2ccc(OC(SC)C(=O)NC(C)(C)/C=N/OC)cc2c1` (stereo not shown) [Compound 34, N-(2-Methoxyimino-1,1-dimethyl-ethyl)-2-methylsulfanyl-2-(3-vinyl-quinolin-6-yloxy)-acetamide], the inhibition at 200 ppm [4] is reported as ≥ 80%, the melting point is reported as 114 to 116 °C and the inhibition at 200 ppm [5] is reported as ≥ 80%. The inhibition at 200 ppm [1] was ≥ 80%, the inhibition at 200 ppm [2] was ≥ 80% and the inhibition at 200 ppm [3] was ≥ 80%.

In the case of `CSC(Oc1cc(C)c2ncc(C)cc2c1)C(=O)NC1(C)CCC1` (stereo not shown) [Compound 9, 2-(3,8-Dimethyl-quinolin-6-yloxy)-N-(1-methyl-cyclobutyl)-2-methylsulfanyl-acetamide], the inhibition at 200 ppm [4] is reported as ≥ 80%, the melting point is reported as 150 to 151 °C and the inhibition at 200 ppm [5] is reported as ≥ 80%. For the same compound, the inhibition at 200 ppm [1] was ≥ 80% and the inhibition at 200 ppm [2] was ≥ 80%.

In the case of `C=Cc1cnc2c(F)cc(OC(SC)C(=O)NC(C)(C)/C=N/OC)cc2c1` (stereo not shown) [Compound 37], the inhibition at 200 ppm [4] is reported as ≥ 80%, the melting point is reported as 105 to 107 °C and the inhibition at 200 ppm ([5]; in Triticum aestivum) is reported as ≥ 80%. For the same compound, the inhibition at 200 ppm [1] was ≥ 80%, the inhibition at 200 ppm [2] was ≥ 80% and the inhibition at 200 ppm ([3]; in Triticum aestivum) was ≥ 80%.

For `C#CC(C)(C)NC(=O)C(Oc1ccc2ncc(C=C)cc2c1)SC` (stereo not shown) [Compound 33, N-(1,1-Dimethyl-prop-2-ynyl)-2-methylsulfanyl-2-(3-vinyl-quinolin-6-yloxy)-acetamide], the inhibition at 200 ppm [4] was ≥ 80%, the melting point was 142 to 144 °C and the inhibition at 200 ppm [5] was ≥ 80%. The inhibition at 200 ppm [1] was ≥ 80%, the inhibition at 200 ppm [2] was ≥ 80% and the inhibition at 200 ppm [3] was ≥ 80%.

In the case of `CCc1cnc2c(C)cc(OC(SC)C(=O)NC(C)(C)/C=N/OC)cc2c1` (stereo not shown) [Compound 16, 2-(3-Ethyl-8-methyl-quinolin-6-yloxy)-N-(2-methoxyimino-1,1-dimethyl-ethyl)-2-methylsulfanyl-acetamide], the inhibition at 200 ppm [4] is reported as ≥ 80%, the melting point is reported as 105 to 106 °C and the inhibition at 200 ppm [5] is reported as ≥ 80%. For the same compound, the inhibition at 200 ppm [1] was ≥ 80%, the inhibition at 200 ppm [2] was ≥ 80% and the inhibition at 200 ppm [3] was ≥ 80%.

With `CO/N=C/C(C)(C)NC(=O)C(Oc1cc(C)c2ncc(C)cc2c1)SC` (stereo not shown) [Compound 8, 2-(3,8-Dimethyl-quinolin-6-yloxy)-N-(2-methoxyimino-1,1-dimethyl-ethyl)-2-methylsulfanyl-acetamide] the inhibition at 200 ppm [4] was ≥ 80%, the melting point was 109 to 111 °C and the inhibition at 200 ppm [5] was ≥ 80%. The inhibition at 200 ppm [1] was ≥ 80%, the inhibition at 200 ppm [2] was ≥ 80% and the inhibition at 200 ppm [3] was ≥ 80%.

For `C#CC(C)(C)NC(=O)C(Oc1ccc2ncc(C)cc2c1)SC` (stereo not shown) [Compound 2, N-(1,1-Dimethyl-prop-2-ynyl)-2-(3-methyl-quinolin-6-yloxy)-2-methylsulfanyl-acetamide], the inhibition at 200 ppm [4] was ≥ 80%, the melting point was 132 to 134 °C and the inhibition at 200 ppm [5] was ≥ 80%. The inhibition at 200 ppm [1] was ≥ 80% and the inhibition at 200 ppm [2] was ≥ 80%.
